Results: patent US11208386B2, “Inhibitors of protein arginine deiminases (PADs) and methods of preparation and use thereof” (University of Massachusetts, priority 2016, dated 2021)

Legend:
Type in all cases: biochemical
PAD3 = target: T1, PAD3 (Homo sapiens, UniProt Q9ULW8); experiment: Inactivation kinetics, PAD3; settings: for kinact/KI: a: single kobs determined; for Fold PAD3 Selectivity: kinact/KI relative to least inhibited isozyme (1.0)
T1 construct: made in house
T1 sequence (Q9ULW8 1-664): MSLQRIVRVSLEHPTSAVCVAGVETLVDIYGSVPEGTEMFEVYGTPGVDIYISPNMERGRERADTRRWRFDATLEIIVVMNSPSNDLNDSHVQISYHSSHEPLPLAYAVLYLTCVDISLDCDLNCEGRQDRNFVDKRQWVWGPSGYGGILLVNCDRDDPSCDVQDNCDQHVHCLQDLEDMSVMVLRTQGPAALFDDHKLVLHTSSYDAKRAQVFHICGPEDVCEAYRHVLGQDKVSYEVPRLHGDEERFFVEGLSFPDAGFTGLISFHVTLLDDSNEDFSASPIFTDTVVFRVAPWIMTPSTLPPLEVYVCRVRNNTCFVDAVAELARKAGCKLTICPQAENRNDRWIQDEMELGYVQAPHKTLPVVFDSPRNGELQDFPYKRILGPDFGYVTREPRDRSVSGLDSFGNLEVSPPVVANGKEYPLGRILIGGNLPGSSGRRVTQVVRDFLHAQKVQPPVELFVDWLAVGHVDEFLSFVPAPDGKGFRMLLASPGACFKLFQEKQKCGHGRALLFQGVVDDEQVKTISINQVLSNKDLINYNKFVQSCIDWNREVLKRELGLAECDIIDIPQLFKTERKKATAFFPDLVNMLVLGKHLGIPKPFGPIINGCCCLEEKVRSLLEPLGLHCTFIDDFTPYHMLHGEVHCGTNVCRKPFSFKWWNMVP
Outline: (§1)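 PAD1, 2 or 4 (2.0 μM) or PAD3 (5.0 μM) preincubated at 37 °C with varying inhibitor in 50 mM HEPES, 10 mM CaCl2, 2 mM DTT, pH 7.6. Timed aliquots assayed 15 min with 10 mM BAEE (BAA for PAD3); citrulline quantified by COLDER.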

PAD2 = target: T2, PAD2 (Homo sapiens, UniProt Q9Y2J8); experiment: Inactivation kinetics, PAD2; settings: for kinact/KI: a: single kobs determined, b: from a linear fit, other footnotes: from kinact and KI; for Fold PAD2 Selectivity: kinact/KI relative to least inhibited isozyme (1.0); for Ki / kinact: PAD2, table footnote
T2 construct: made in house
Outline: as §1

PAD4 = target: T3, PAD4 (Homo sapiens, UniProt Q9UM07); experiment: Inactivation kinetics, PAD4; settings: for kinact/KI: a: single kobs determined, b: from a linear fit; for Fold PAD4 Selectivity: kinact/KI relative to least inhibited isozyme (1.0)
T3 construct: made in house
Outline: as §1

PAD1 = target: T4, PAD1 (Homo sapiens, UniProt Q9ULC6); experiment: Inactivation kinetics, PAD1; settings: for kinact/KI: a: single kobs determined, b: from a linear fit; for Fold PAD1 Selectivity: kinact/KI relative to least inhibited isozyme (1.0)
T4 construct: made in house
T4 sequence (Q9ULC6 1-663): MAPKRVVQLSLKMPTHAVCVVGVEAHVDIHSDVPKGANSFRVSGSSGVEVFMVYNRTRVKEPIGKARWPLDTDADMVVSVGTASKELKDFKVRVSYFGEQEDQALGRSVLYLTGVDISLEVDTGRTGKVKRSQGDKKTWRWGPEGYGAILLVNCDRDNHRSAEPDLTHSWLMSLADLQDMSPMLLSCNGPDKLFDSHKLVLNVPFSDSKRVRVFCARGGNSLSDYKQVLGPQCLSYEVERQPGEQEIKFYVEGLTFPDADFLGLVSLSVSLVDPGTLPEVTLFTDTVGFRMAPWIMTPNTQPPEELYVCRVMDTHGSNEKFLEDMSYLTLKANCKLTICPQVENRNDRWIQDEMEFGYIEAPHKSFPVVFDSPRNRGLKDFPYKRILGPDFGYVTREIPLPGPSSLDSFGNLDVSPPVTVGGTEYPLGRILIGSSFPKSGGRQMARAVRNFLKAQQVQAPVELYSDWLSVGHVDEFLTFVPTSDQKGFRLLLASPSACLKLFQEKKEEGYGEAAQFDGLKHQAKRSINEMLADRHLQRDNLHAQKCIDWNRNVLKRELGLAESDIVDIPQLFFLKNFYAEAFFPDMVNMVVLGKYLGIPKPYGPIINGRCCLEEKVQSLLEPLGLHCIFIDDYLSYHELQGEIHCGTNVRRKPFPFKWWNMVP
Outline: as §1

T2 sequence (Q9Y2J8 whole entry): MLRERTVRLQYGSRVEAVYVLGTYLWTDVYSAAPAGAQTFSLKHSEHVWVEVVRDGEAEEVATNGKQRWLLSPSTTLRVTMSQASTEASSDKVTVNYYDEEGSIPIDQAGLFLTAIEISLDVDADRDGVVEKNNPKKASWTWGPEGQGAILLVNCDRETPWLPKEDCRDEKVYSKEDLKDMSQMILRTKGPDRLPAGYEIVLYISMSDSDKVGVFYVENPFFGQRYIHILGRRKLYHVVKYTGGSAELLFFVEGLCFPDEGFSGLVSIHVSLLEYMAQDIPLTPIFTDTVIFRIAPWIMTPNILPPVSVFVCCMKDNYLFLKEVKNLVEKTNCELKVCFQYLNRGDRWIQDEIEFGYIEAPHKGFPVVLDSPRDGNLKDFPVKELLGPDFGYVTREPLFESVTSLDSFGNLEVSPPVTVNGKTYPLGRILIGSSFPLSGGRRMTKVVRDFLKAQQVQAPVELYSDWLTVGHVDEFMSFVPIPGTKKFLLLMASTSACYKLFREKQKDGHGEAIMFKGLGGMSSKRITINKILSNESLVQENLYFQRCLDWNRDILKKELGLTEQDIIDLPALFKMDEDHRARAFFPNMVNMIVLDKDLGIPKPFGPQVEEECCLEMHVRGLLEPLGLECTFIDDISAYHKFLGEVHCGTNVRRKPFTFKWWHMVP
T3 sequence (Q9UM07 whole entry): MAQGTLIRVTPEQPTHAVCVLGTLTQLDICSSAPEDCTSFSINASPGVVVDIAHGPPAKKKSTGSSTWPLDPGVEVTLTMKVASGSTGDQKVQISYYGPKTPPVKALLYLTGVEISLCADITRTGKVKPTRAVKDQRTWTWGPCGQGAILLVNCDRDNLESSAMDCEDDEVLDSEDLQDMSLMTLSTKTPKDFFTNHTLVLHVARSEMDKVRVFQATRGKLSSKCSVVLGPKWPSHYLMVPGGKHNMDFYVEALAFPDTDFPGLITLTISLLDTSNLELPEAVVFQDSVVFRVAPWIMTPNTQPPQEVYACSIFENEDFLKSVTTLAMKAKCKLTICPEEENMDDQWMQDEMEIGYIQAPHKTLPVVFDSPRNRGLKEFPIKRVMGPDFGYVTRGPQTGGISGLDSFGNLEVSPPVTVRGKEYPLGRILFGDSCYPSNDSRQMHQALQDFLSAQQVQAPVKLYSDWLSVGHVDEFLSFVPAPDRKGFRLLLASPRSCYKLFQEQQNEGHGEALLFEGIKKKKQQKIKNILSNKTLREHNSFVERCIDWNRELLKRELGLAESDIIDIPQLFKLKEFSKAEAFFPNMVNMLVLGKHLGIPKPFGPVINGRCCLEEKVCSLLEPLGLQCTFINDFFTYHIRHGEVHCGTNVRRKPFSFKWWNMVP

| SMILES | kinact/KI (PAD3) [M⁻¹ s⁻¹] | Fold PAD3 Selectivity (PAD3) [fold] | kinact/KI (PAD2) [M⁻¹ s⁻¹] | Fold PAD2 Selectivity (PAD2) [fold] | kinact/KI (PAD4) [M⁻¹ s⁻¹] | Fold PAD4 Selectivity (PAD4) [fold] | kinact/KI (PAD1) [M⁻¹ s⁻¹] | Fold PAD1 Selectivity (PAD1) [fold] | Ki (PAD2) [µM] | kinact (PAD2) [s⁻¹] |
| --- | --- | --- | --- | --- | --- | --- | --- | --- | --- | --- |
| CCN1Cc2cccc(C(=O)N[C@@H](CCCNC(=N)CCl)c3nc4ccccc4n3CC)c2C1=O [Compound 8f, N1-(2-ethyl-3-oxoisoindoline)benzoyl-N5-(2-chloro-1-iminoethyl)-1-(1-ethyl-benzo[d]imidazol-2-yl)-L-ornithine] | 114 | 2.1 | 752 | 14 | 54.2 | 1.0 | 952 | 18 | – | – |
| CCN1Cc2cccc(C(=O)N[C@@H](CCCNC(=N)CF)c3nc4ccccc4n3C(C)C)c2C1=O [Compound 8g, N1-(2-ethyl-3-oxoisoindoline)benzol-N5-(2-fluoro-1-iminoethyl)-1-(1-isopropyl-benzo[d]imidazol-2-yl)-L-ornithine] | 26.7 | 3.4 | 173 | 22 | 7.83 | 1.0 | 78.3 | 10 | – | – |
| CCN1Cc2cccc(C(=O)N[C@@H](CCCNC(=N)CCl)c3nc4ccccc4n3C(C)C)c2C1=O [Compound 8h, N1-(2-ethyl-3-oxoisoindoline)benzoyl-N5-(2-chloro-1-iminoethyl)-1-(1-isopropyl-benzo[d]imidazol-2-yl)-L-ornithine] | 80 | 2.0 | 277 | 6.8 | 40.5 | 1.0 | 448 | 11 | – | – |
| CCN1Cc2cccc(C(=O)N[C@@H](CCCNC(=N)CF)c3nc4c(OC)cccc4[nH]3)c2C1=O [Compound 8i, N1-(2-ethyl-3-oxoisoindoline)benzoyl-N5-(2-fluoro-1-iminoethyl)-1-(4-methoxy-1H-benzo[d]imidazol-2-yl)-L-ornithine] | 153 | 12 | 396 | 32 | 12.5 | 1.0 | 1340 | 107 | – | – |
| CCN1Cc2cccc(C(=O)N[C@@H](CCCNC(=N)CCl)c3nc4c(OC)cccc4[nH]3)c2C1=O [Compound 8j, N1-(2-ethyl-3-oxoisoindoline)benzoyl-N5-(2-chloro-1-iminoethyl)-1-(4-methoxy-1H-benzo[d]imidazol-2-yl)-L-ornithine] | 313 | 1.0 | 720 | 2.3 | 308 | 1.0 | 1530 | 5.0 | – | – |
| CCN1Cc2cccc(C(=O)N[C@@H](CCCNC(=N)CF)c3nc4c(OC)cccc4n3C)c2C1=O [Compound 8k, N1-(2-ethyl-3-oxoisoindoline)benzoyl-N5-(2-fluoro-1-iminoethyl)-1-(4-methoxy-1-methyl-benzo[d]imidazol-2-yl)-L-ornithine] | 72 | 1.0 | 6090 | 85 | 71.7 | 1.0 | 1180 | 16 | 5.3 | 0.0323 |
| CCN1Cc2cccc(C(=O)N[C@@H](CCCNC(=N)CCl)c3nc4c(OC)cccc4n3C)c2C1=O [Compound 8l, N1-(2-ethyl-3-oxoisoindoline)benzoyl-N5-(2-chloro-1-iminoethyl)-1-(4-methoxy-1-methyl-benzo[d]imidazol-2-yl)-L-ornithine] | 247 | 1.0 | 1240 | 5.0 | 323 | 1.3 | 963 | 3.9 | – | – |
| CCOc1cccc2c1nc([C@H](CCCNC(=N)CF)NC(=O)c1cccc3c1C(=O)N(CC)C3)n2C [Compound 8m, N1-(2-ethyl-3-oxoisoindoline)benzoyl-N5-(2-fluoro-1-iminoethyl)-1-(4-ethoxy-1-methyl-benzo[d]imidazol-2-yl)-L-ornithine] | 57.8 | 1.0 | 1430 | 26 | 55.8 | 1.0 | 497 | 8.9 | – | – |
| CCOc1cccc2c1nc([C@H](CCCNC(=N)CCl)NC(=O)c1cccc3c1C(=O)N(CC)C3)n2C [Compound 8n, N1-(2-ethyl-3-oxoisoindoline)benzoyl-N5-(2chloro-1-iminoethyl)-1-(4-ethoxy-1-methyl-benzo[d]imidazol-2-yl)-L-ornithine] | 138 | 5.5 | 1090 | 43 | 25.2 | 1.0 | 302 | 12 | – | – |
| CCN1Cc2cccc(C(=O)N[C@@H](CCCNC(=N)CF)c3nc4cc(OC)ccc4n3C)c2C1=O [Compound 8o, N1-(2-ethyl-3-oxoisoindoline)benzoyl-N5-(2-fluoro-1-iminoethyl)-1-(5-methoxy-1-methyl-benzo[d]imidazol-2-yl)-L-ornithine] | 17.8 | 1.0 | 2230 | 125 | 68.3 | 3.8 | 842 | 47 | 18.7 | 0.0417 |
| CCN1Cc2cccc(C(=O)N[C@@H](CCCNC(=N)CCl)c3nc4cc(OC)ccc4n3C)c2C1=O [Compound 8p, N1-(2-ethyl-3-oxoisoindoline)benzoyl-N5-(2-chloro-1-iminoethyl)-1-(5-methoxy-1-methyl-benzo[d]imidazol-2-yl)-L-ornithine] | 296 | 9.3 | 1020 | 32 | 31.7 | 1.0 | 1180 | 37 | – | – |
| COc1cccc2c1nc([C@H](CCCNC(=N)CF)NC(=O)c1cccc3c1C(=O)N(C(C)C)C3)n2C [Compound 8q] | 26.7 | 1.0 | 1560 | 58 | 70 | 2.6 | 858 | 32 | – | – |
| COc1cccc2c1nc([C@H](CCCNC(=N)CCl)NC(=O)c1cccc3c1C(=O)N(C(C)C)C3)n2C [Compound 8r] | 241 | 1.2 | 853 | 4.1 | 207 | 1.0 | 732 | 3.5 | – | – |
| COc1cccc2c1nc([C@H](CCCNC(=N)CF)NC(=O)c1cccc3c1C(=O)N(C1CC1)C3)n2C [Compound 8s] | 20.3 | 1.0 | 1570 | 77 | 75 | 3.8 | 766 | 38 | – | – |
